Test results reported in patent publication US7316738B2, “Milled submicron chlorothalonil with narrow particle size distribution, and uses thereof” (Phibro-Tech, Inc., priority 2004, dated 2008).
Like-named read-outs stand apart in the source and are kept apart here.

How the values were obtained:
[1] = cited from earlier work
leafspot infestation = conditions: cited from earlier work; for Def (0.42) defoliation: 0.42 kg chlorothalonil per ha; for Def (0.84) defoliation: 0.84 kg chlorothalonil per ha; for Def (1.26) defoliation: 1.26 kg chlorothalonil per ha
[2] = Particle size (Sedigraph 5100T) of chlorothalonil milled with 0.5–0.6 mm cerium-doped zirconium oxide; assay type: physicochemical
Method: The laboratory-sized vertical mill was provided by CB Mills, model# L-3-J. The mill has a 2 liter capacity and is jacketed for cooling. Unless otherwise specified, ambient water was cycled through the mill cooling jacket during operation. The internal dimensions are 3.9″ diameter by 9.1″ height. The mill uses a standard 3×3″ disk agitator (mild steel) on a stainless steel shaft, and it operates at 2,620 rpm.
The media used in this Example was 0.4–0.5 mm zirconium silicate beads supplied by CB Mills. All particle size determinations were made with a Sedigraph™ 5100T manufactured by Micromeritics, which uses x-ray detection and bases calculations of size on Stokes' Law.
The same mill and conditions were used in this experiment as in experiment 1. However, the grinding media was 0.5–0.6 mm cerium-doped zirconium oxide beads obtained from CB Mills. The density of the cerium doped zirconium oxide is ˜6.0 g/cm^3. […] The total batch weight was about 600 g.

[3] = Particle size (Sedigraph 5100T) of chlorothalonil milled with 0.4–0.5 mm zirconium silicate; assay type: physicochemical
[4] = cited from earlier work; remark: listed apart in the source
[5] = milling time 0 mins, 0.5–0.6 mm cerium-doped zirconium oxide beads
[6] = milling time 90 mins, 0.5–0.6 mm cerium-doped zirconium oxide beads
[7] = milling time 240 mins, 0.5–0.6 mm cerium-doped zirconium oxide beads
[8] = milling time 0 mins, 0.4–0.5 mm zirconium silicate beads
[9] = milling time 30 mins, 0.4–0.5 mm zirconium silicate beads
[10] = milling time 60 mins, 0.4–0.5 mm zirconium silicate beads
[11] = milling time 90 mins, 0.4–0.5 mm zirconium silicate beads
[12] = milling time 120 mins, 0.4–0.5 mm zirconium silicate beads
[13] = milling time 150 mins, 0.4–0.5 mm zirconium silicate beads
[14] = milling time 180 mins, 0.4–0.5 mm zirconium silicate beads
[15] = milling time 270 mins, 0.4–0.5 mm zirconium silicate beads
[16] = milling time 450 mins, 0.4–0.5 mm zirconium silicate beads
[17] = 0.1 cm zirconium beads, 3000 rpm, 10 minutes, US 2004/0024099
[18] = 0.1 cm zirconia, 70% to 80% loading, 10 minutes, US 2004/0063847, 2003/0040569

## N#Cc1c(Cl)c(Cl)c(Cl)c(C#N)c1Cl [Air, chlorothalonil]
[1]; 1974 data, air milled
  <1μ, % (percentage of particles with a diameter less than 1 micron): 7%
  med. μ (median diameter in microns): 3.3 microns
[1]; 1975 data, air milled
  <1μ, % (percentage of particles with a diameter less than 1 micron): 5%
  med. μ (median diameter in microns): 3.3 microns
Leafspot infestation; 1974 data, air milled
  Def (0.42) defoliation: 39
  Def (0.84) defoliation: 25
  Def (1.26) defoliation: 19
Leafspot infestation; 1975 data, air milled
  Def (0.42) defoliation: 35
  Def (0.84) defoliation: 34
  Def (1.26) defoliation: 27

## N#Cc1c(Cl)c(Cl)c(Cl)c(C#N)c1Cl [Wet, chlorothalonil]
[1]; 1974 data, wet milled 3 hr
  <1μ, % (percentage of particles with a diameter less than 1 micron): 8%
  med. μ (median diameter in microns): 3.8 microns
[1]; 1974 data, wet milled 9 hr
  <1μ, % (percentage of particles with a diameter less than 1 micron): 22%
  med. μ (median diameter in microns): 1.75 microns
[1]; 1974 data, wet milled 13 hr
  <1μ, % (percentage of particles with a diameter less than 1 micron): 24%
  med. μ (median diameter in microns): 1.6 microns
[1]; 1975 data, wet milled 3 hr
  <1μ, % (percentage of particles with a diameter less than 1 micron): 10%
  med. μ (median diameter in microns): 3.7 microns
[1]; 1975 data, wet milled >9 hr
  <1μ, % (percentage of particles with a diameter less than 1 micron): 22%
  med. μ (median diameter in microns): 1.6 microns
Leafspot infestation; 1974 data, wet milled 3 hr
  Def (0.42) defoliation: 33
  Def (0.84) defoliation: 24
  Def (1.26) defoliation: 15.5
Leafspot infestation; 1974 data, wet milled 9 hr
  Def (0.42) defoliation: 32
  Def (0.84) defoliation: 17.2
  Def (1.26) defoliation: 14.1
Leafspot infestation; 1974 data, wet milled 13 hr
  Def (0.42) defoliation: 27
  Def (0.84) defoliation: 23
  Def (1.26) defoliation: 15.4
Leafspot infestation; 1975 data, wet milled 3 hr
  Def (0.42) defoliation: 35
  Def (0.84) defoliation: 28
  Def (1.26) defoliation: 28
Leafspot infestation; 1975 data, wet milled >9 hr
  Def (0.42) defoliation: 32
  Def (0.84) defoliation: 29
  Def (1.26) defoliation: 29

## N#Cc1c(Cl)c(Cl)c(Cl)c(C#N)c1Cl [chlorothalonil, 2,4,5,6-tetrachloro-1,3-dicyanobenzene]
[2]; after 90 minutes of milling (first statement)
  increase in number of particles per unit of mass over the standard products (factor): more than 30
[2]; after 90 minutes of milling (second statement)
  increase in number of particles per unit of mass over the standard products (factor): more than 1000
[2]; [5]
  Volume % With Diameter Greater Than 1 μm: 92 Volume %
  Volume % With Diameter Greater Than 2 μm: 77 Volume %
  Volume % With Diameter Greater Than 5 μm: 30 Volume %
  Volume % With Diameter Greater Than 10 μm: 8 Volume %
[2]; [6]
  Volume % With Diameter Greater Than 0.4 μm: 22 Volume %
  Volume % With Diameter Greater Than 1 μm: 3 Volume %
  Volume % With Diameter Greater Than 2 μm: 3 Volume %
  Volume % With Diameter Greater Than 5 μm: 3 Volume %
  Volume % With Diameter Greater Than 10 μm: 3 Volume %
  d50: 0.31 μm
[2]; [7]
  Volume % With Diameter Greater Than 0.2 μm: 51 Volume %
  Volume % With Diameter Greater Than 0.4 μm: 3 Volume %
  Volume % With Diameter Greater Than 1 μm: 3 Volume %
  Volume % With Diameter Greater Than 2 μm: 2 Volume %
  Volume % With Diameter Greater Than 5 μm: 1 Volume %
  Volume % With Diameter Greater Than 10 μm: 0 Volume %
  d50: 0.21 μm
[2]; obtainable in 90 minutes, 0.5 mm zirconia milling media
  d50: less than 1 micron
[3]; at 60 minutes, 0.4–0.5 mm zirconium silicate media
  d90: about 2 microns
[3]; before wet milling
  starting particle size: 3–4 microns
[3]; [8]
  Volume % With Diameter Greater Than 2 μm: 95 Volume %
  Volume % With Diameter Greater Than 5 μm: 48 Volume %
  Volume % With Diameter Greater Than 10 μm: 10 Volume %
  d50: 4.9 μm
[3]; [9]
  Volume % With Diameter Greater Than 1 μm: 68 Volume %
  Volume % With Diameter Greater Than 2 μm: 21 Volume %
  Volume % With Diameter Greater Than 5 μm: 4 Volume %
  Volume % With Diameter Greater Than 10 μm: 0 Volume %
  d50: 1.3 μm
[3]; [10]
  Volume % With Diameter Greater Than 1 μm: 50 Volume %
  Volume % With Diameter Greater Than 2 μm: 11 Volume %
  Volume % With Diameter Greater Than 5 μm: 2 Volume %
  Volume % With Diameter Greater Than 10 μm: 4 Volume %
  d50: 1.0 μm
[3]; [11]
  Volume % With Diameter Greater Than 1 μm: 94 Volume %
  Volume % With Diameter Greater Than 2 μm: 22 Volume %
  Volume % With Diameter Greater Than 5 μm: 23 Volume %
  Volume % With Diameter Greater Than 10 μm: 18 Volume %
  d50: 1.4 μm
[3]; [12]
  Volume % With Diameter Greater Than 2 μm: 4 Volume %
  Volume % With Diameter Greater Than 5 μm: 0 Volume %
  Volume % With Diameter Greater Than 10 μm: 2 Volume %
[3]; [13]
  Volume % With Diameter Greater Than 1 μm: 58 Volume %
  Volume % With Diameter Greater Than 2 μm: 6 Volume %
  Volume % With Diameter Greater Than 5 μm: 2 Volume %
  Volume % With Diameter Greater Than 10 μm: 0 Volume %
[3]; [14]
  Volume % With Diameter Greater Than 1 μm: 53 Volume %
  Volume % With Diameter Greater Than 2 μm: 7 Volume %
  Volume % With Diameter Greater Than 5 μm: 2 Volume %
  Volume % With Diameter Greater Than 10 μm: 2 Volume %
[3]; [15]
  Volume % With Diameter Greater Than 1 μm: 54 Volume %
  Volume % With Diameter Greater Than 2 μm: 8 Volume %
  Volume % With Diameter Greater Than 5 μm: 0 Volume %
  Volume % With Diameter Greater Than 10 μm: 2 Volume %
[3]; [16]
  Volume % With Diameter Greater Than 1 μm: 56 Volume %
  Volume % With Diameter Greater Than 2 μm: 21 Volume %
  Volume % With Diameter Greater Than 5 μm: 8 Volume %
  Volume % With Diameter Greater Than 10 μm: 12 Volume %
[3]; within about one hour, 0.4–0.5 mm zirconium silicate media
  d50: ~1 micron
[4]; [17]
  mean volume diameter (d50): less than 3 microns
  size that 90% of the number of particles are below: below 0.5 microns
[4]; 40% chlorothalonil, 5.6% zinc oxide formulation, wet mill or high speed media mill, U.S. Pat. No. 5,667,795
  average particle size of the product: 3 microns
[4]; milled with 2 mm glass beads, U.S. Pat. No. 5,360,783 Test 5
  average particle size diameter: 2.3 microns

## CC1OC(C)OC(C)OC(C)O1 (stereo not shown) [metaldehyde]
[4]; [18]
  diameter that 90% of the particles are below: less than 2.5 microns
  mean volume diameter: less than 1.5 microns

## manganese ethylenebis(dithiocarbamate) [Maneb]
[4]; milled with 2 mm glass beads, U.S. Pat. No. 5,360,783 Example 2
  mean particle diameter: 1.7–1.8 micons
